According to patent US20150216870A1, “Combination of PI3K Inhibitor and C-Met Inhibitor” (Novartis AG, priority 2012, published 2015):

What was measured:
[1] = tested on: H4; test: CellTiter-Glo cell viability dose matrix in H4 glioblastoma cells; type: cell-based, human; details: H4 (PTEN mutant, HGF expressing)
Experimental: (§2) The PI3K inhibitor COMPOUND C and the c-MET receptor tyrosine kinase inhibitor 2-fluoro-N-methyl-4-[7-quinolin-6-yl-methyl)-imidazo[1,2-b][1,2,4]triazin-2yl]benzamide are evaluated in combination in glioblastoma tumor models. COMPOUND C (10 mM) and 2-fluoro-N-methyl-4-[7-quinolin-6-yl-methyl)-imidazo[1,2-b][1,2,4]triazin-2yl]benzamide (10 mM) are dissolved in DMSO, and are stored in aliquots at −20° C.
(§3) Human Glioblastoma cell lines, U-87 MG (PTEN mutant and HGF expressing line), H4 (PTEN mutant and HGF expressing line), A172 (PTEN mutant line with low HGF expression level) and LN-229 (PTEN wildtype and HGF low) are purchased from American Type Cell Collection and are maintained in a humidified incubator at 37° C. in 5% CO2 in recommended media. All four cell lines express detected MET at the mRNA level.
(§4) The cells are passaged twice a week and the medium is changed every 2 to 3 days. […]
(§5) Cell viability is determined by measuring cellular ATP content using the CellTiter-Glo® (CTG) luminescent cell viability assay (Promega). […] An equal volume of the CTG reagents is added to each well at the end of the compound treatment and luminescence is recorded on an Envision plate reader (Perkin Elmer). Reduced and enhanced luminescent signal values (responses) are calculated relative to untreated (control) cells. […]

[2] = tested on: A172; test: CellTiter-Glo cell viability dose matrix in A172 glioblastoma cells; type: cell-based, human; details: A172 (PTEN mutant, low HGF)
Experimental: as §2, §3, §4, §5

[3] = tested on: U-87 MG human glioblastoma xenograft; test: U-87 MG xenograft tumor growth inhibition and tumor growth delay; type: in vivo, nude mice; details: for T/C or T/T0: D13; for Median TTE: endpoint 2000 mm3; for Regress.: PR: number of animals
Experimental: In this experiment, the U-87 MG human glioblastoma xenograft model is used to assess the anti-tumor efficacy of the PI3K inhibitor COMPOUND C and c-Met inhibitor 2-fluoro-N-methyl-4-[7-quinolin-6-yl-methyl)-imidazo[1,2-b][1,2,4]triazin-2yl]benzamide as single agents or in combination. U-87 MG tumor cells obtained from the National Cancer Institute are reported to be homozygous for likely oncogenic variants of CDKN2A, CDKN2C, CDKN2a, and PTEN; no mutations are detected in MET, PIK3CA, or 58 other genes that are frequently altered in neoplastic cells; and HGF expressing.
Mice are treated daily for 21 days with 17.7 and 35.3 mg/kg of the c-Met inhibitor and 32.7 mg/kg COMPOUND C monotherapies, and with the c-Met inhibitor/COMPOUND C dual therapy at 17.7:32.7. An c-Met inhibitor/COMPOUND C combination at the 58.8:5.4 mg/kg dose ratio was included in the study. The control mice received both vehicles, and a standard preclinical temozolomide regimen monitored tumor model performance. The oral treatments began on Day 1 (D1) in nude mice with established subcutaneous tumors. Each animal was euthanized when its tumor reached the predetermined 2000 mm3 endpoint volume, or on D60, whichever came first. The study was terminated on D51. […] Overall efficacy was determined from the times required for tumors to progress to the volume endpoint, and from D51 survival and regression rates. This report describes the methods and results of the U87MG-e326 tumor growth delay experiment.
The animals are fed ad libitum water (reverse osmosis, 1 ppm CI) and NIH 31 Modified and Irradiated Lab Diet® consisting of 18.0% crude protein, 5.0% crude fat, and 5.0% crude fiber. The mice are housed on irradiated Enrich-O'cobs™ Laboratory Animal Bedding in static microisolators on a 12-hour light cycle at 20-22° C. (68-72° F.) and 40-60% humidity.
The U-87 MG tumor line is obtained from the American Type Culture Collection and maintained by serial engraftment in nude mice. A tumor fragment (1 mm^3) is implanted subcutaneously into the right flank of each test mouse. Tumors are calipered in two dimensions to monitor growth as their mean volume approached the desired 100-150 mm^3 range. Tumor size, in mm^3, was calculated from: Tumor Volume=(width^2×length)/2, where width and length (in mm) are measurements of the tumor. Tumor weight can be estimated with the assumption that 1 mg is equivalent to 1 mm^3 of tumor volume. Fourteen days after tumor cell implantation, on D1 of the study, mice with individual tumor volumes of 63-196 mm^3 are sorted into seven groups, with group mean tumor volumes of 122-127 mm^3.
The c-Met inhibitor 2-fluoro-N-methyl-4-[7-quinolin-6-yl-methyl)-imidazo[1,2-b][1,2,4]triazin-2yl]benzamide (di-HCl salt, 84.98% free base) is stored at 4° C. and is added to deionized water at 2× the final concentration and sonicated until dissolved. An equal volume of 0.5% methylcellulose and 0.1% Tween® 80 in deionized water is added to provide a 5.884 mg/mL dosing solution in 0.25% methylcellulose and 0.05% Tween® 80 in deionized water (Vehicle 1). Portions of this solution are diluted with Vehicle 1 to provide 3.53 and 1.765 mg/mL dosing solutions.
COMPOUND C (HCl salt, 91.85% free base) is stored at −20° C. and is added to 1% Tween® 80 in deionized water and sonicated to obtain a uniform suspension at 2× the final concentration. […] The 0.544 mg/mL dosing suspension is obtained by diluting a portion of the first suspension with Vehicle 2.

[4] = Toxicity (deaths) in U-87 MG xenograft study; type: in vivo
From the text: (§1) Animals are weighed on Days 1-5, on each treatment day (except weekends), and twice weekly thereafter, until the end of the study. Group mean BW nadir determinations exclude measurements taken after more than 50% of the assessable mice in the group had exited the study, and also excluded any animal that was classified as an NTR death during the study. Acceptable toxicity for the maximum tolerated dose (MTD) is defined as a group mean BW loss of less than 15% during the test, and not more than one TR death among ten animals. Any animal with BW losses exceeding 15% for three consecutive measurements, or with a BW loss exceeding 20% for one measurement, are euthanized, and classified as a TR death unless it was the first death in the group. A death is classified as Non-Treatment Related (NTR) if there was no evidence that the death is related to treatment side effects and the death occurs more than 14 days after dosing ended. NTR deaths are categorized as NTRa (due to accident or error), NTRu (due to unknown causes), or NTRm (necropsy-confirmed tumor dissemination by invasion and/or metastasis). To conserve animals while providing maximum information, the first death in a group was classified as NTRu; such an NTR death was to be reclassified as TR if two subsequent TR deaths are recorded in the same group.

[5] = Toxicity (body weight, deaths) in NCI-H1993 xenograft study; type: in vivo; details: c-Met inhibitor 17.7 mg/kg p.o. b.i.d. to end
Experimental: as §1, with “the study. The maximum group mean body weight (BW) loss is determined for the interval between D1 and D20 as well as for the entire study. Group mean” for “the study. Group mean”, “the group have exited the” for “the group had exited the”, “and also exclude any animal” for “and also excluded any animal”, “classified as a non-treatment related (NTR) death during” for “classified as an NTR death during”, “classified as NTR if there” for “classified as Non-Treatment Related (NTR) if there”

[6] = c-Met inhibitor 17.7 mg/kg (15 mg/kg free base) p.o. qd x21
[7] = c-Met inhibitor 17.7 mg/kg p.o. qd x21
[8] = c-Met inhibitor 35.3 mg/kg (30 mg/kg free base) p.o. qd x21
[9] = c-Met inhibitor 35.3 mg/kg p.o. qd x21

## CNC(=O)c1ccc(-c2cnc3ncc(Cc4ccc5ncccc5c4)n3n2)cc1F [c-Met inhibitor]
[1]
  anti-proliferative activity (single agent): only moderate activities
[2]
  anti-proliferative activity (single agent): completely inactive
[3]; c-Met inhibitor 15 mg/kg free base p.o. qd x21
  increase of median TTE: 21.4 days
[3]; [6]
  % TGD: 183%
  T/C or T/T0: 5%
  Median TTE: 33.1 days
[3]; c-Met inhibitor 17.7 mg/kg (15 mg/kg free base) p.o. qd x21, listed as c-Met inh.
  T/C or T/T0: 5%
[3]; [7]
  Regress.: PR: 4 PR
[3]; c-Met inhibitor 30 mg/kg free base p.o. qd x21
  increase of median TTE: 23.4 days
[3]; [8]
  % TGD: 200%
  T/C or T/T0: 1%
  Median TTE: 35.1 days
[3]; c-Met inhibitor 35.3 mg/kg (30 mg/kg free base) p.o. qd x21, listed as c-Met inh.
  T/C or T/T0: 1%
[3]; [9]
  Regress.: PR: 4 PR
[4]; [7]
  Deaths: (0)
[4]; [9]
  Deaths: (0)
[5]
  Deaths: NTR: (1 NTR)
  deaths due to individual body weight losses: One
